According to patent US20250295639A1, “METHODS FOR TREATING HEART DISEASES” (Cytokinetics, Incorporated, priority 2024, published 2025):
“And” between values parts separate entries of the source, which are not always exact repeats. Equal values may be shown once.

Test system: patients with symptomatic oHCM
Experiment: SEQUOIA-HCM secondary analysis: clinical response / responder analyses (NYHA class, KCCQ-CSS, hemodynamic response, exercise capacity)
Format: in vivo, human
From the text: A secondary objective of this trial was to evaluate the effect of aficamten on patient health status, as determined by changes in the Kansas City Cardiomyopathy Questionnaire-Clinical Summary Score (KCCQ-CSS) from baseline to Week 12 and Week 24. A further secondary objective of this trial was to evaluate the effect of aficamten on New York Heart Association (NYHA) Functional Classification, as determined by the proportion of patients with ≥1 class improvement in NYHA Functional Class from baseline to Week 12 and Week 24. An exploratory objective of this trial was to evaluate the effect of aficamten on exercise capacity and functional class, as determined by comparing with baseline, the number of patients at Week 24 achieving either (1) change from baseline of ≥1.5 mL/kg/min in pVO2 AND ≥1 class improvement in NYHA Functional Class; or (2) Change from baseline of ≥3.0 mL/kg/min in pVO2 AND no worsening of NYHA Functional Class. A further exploratory objective of this trial was to evaluate the effect of aficamten on patient response over time, as determined by (1) […]; (2) proportion of patients with resting LVOT-G<30 mmHg, post-Valsalva LVOT-G<50 mmHg, […]; and (3) proportion of patients with resting LVOT-G<30 mmHg, post-Valsalva LVOT-G<50 mmHg, […] Secondary Analysis of the Results of the SEQUOIA-HCM Study. In a sub-analysis of the results of Example 8 (i.e, the results of the SEQUOIA-HCM Study) we sought to comprehensively characterize the broad clinical impact of aficamten with respect to responder analyses across a number of clinically relevant, patient-centric outcome domains. […] For patients with missing data, the last available observation (week 8 to week 20) was used. Patients with no available data on or after week 8 were classified as not meeting the efficacy criteria. Patients were then classified according to the number of efficacy outcome definitions that they met. Baseline characteristics were summarized using means and standard deviations or median and interquartile for continuous normal and skewed variables, as well as counts and percentages for categorical variables. These characteristics were compared across groups using trend tests (linear regression, chi-squared tests of trend, and Cuzick's non-parametric trend tests). Proportions of patients meeting each efficacy outcome definition were compared between treatment groups using chi-squared tests, and linear regression was used to assess the treatment effect of aficamten vs placebo on change in efficacy outcomes while also adjusting for baseline value, CPET modality at baseline and beta blocker use at baseline. No adjustments were made for multiple comparisons. Two-sided p-values less than 0.05 were considered statistically significant.

[1] = 142 patients treated with aficamten
[2] = of the 101 aficamten symptomatic responders

**Q.** CCc1nc(-c2ccc3c(c2)CC[C@H]3NC(=O)c2cnn(C)c2)no1 [aficamten, (R)—N-(5-(5-ethyl-1,2,4-oxadiazol-3-yl)-2,3-dihydro-1H-inden-1-yl)-1-methyl-1H-pyrazole-4-carboxamide] was tested. Which “patients with moderate to large KCCQ-CSS improvement of ≥10 to <20” value (142 patients on aficamten) did it give?
**A.** The value was 27%.

**Q.** And the “patients with no change or a decrease in KCCQ-CSS score (<5 points)” value (142 patients on aficamten)?
**A.** The value was 37%.

**Q.** What about the “patients with small KCCQ-CSS improvement of ≥5 to <10” value (142 patients on aficamten) of the same compound?
**A.** The value was 13%.

**Q.** And the “patients with very large KCCQ-CSS change of ≥20” value (142 patients on aficamten)?
**A.** Its value is 22%.

**Q.** And the “patients improved from NYHA class II to I” value [1]?
**A.** Its value is 39%.

**Q.** And the “patients improved from NYHA class III to I” value [1]?
**A.** The value was 11%.

**Q.** What about the “patients improved from NYHA class III to II” value [1] of the same compound?
**A.** The value was 9%.

**Q.** And the “patients with no change in NYHA class” value [1]?
**A.** Its value is 38%.

**Q.** What about the “patients worsened from NYHA class II to class III” value [1] of the same compound?
**A.** The value was 2%.

**Q.** What about the “>1.5 mL/kg/min increase in pVO2 and ≥1 NYHA class improvement or ≥3.0 mL/kg/min increase in pVO2 and no worsening of NYHA class” value (Aficamten (N = 142)) of the same compound?
**A.** Its value is 60 (42) n (%).

**Q.** And the “≥1.5 mL/kg/min increase in pVO2 and ≥1 NYHA class improvement” value (Aficamten (N = 142))?
**A.** Its value is 44 (31) n (%).

**Q.** What about the “≥3.0 mL/kg/min increase in pVO2 and no worsening of NYHA class” value (Aficamten (N = 142)) of the same compound?
**A.** The value was 37 (26) n (%).

**Q.** And the “≥3.0 mL/kg/min increase in pVO2 and ≥1 NYHA class improvement” value (Aficamten (N = 142))?
**A.** Its value is 21 (15) n (%).

**Q.** What about the “responder endpoint, difference vs. placebo” value (Week 24) of the same compound?
**A.** The value was 28.7%.

**Q.** And the “responder endpoint, number needed to treat (NNT)” value (Week 24)?
**A.** The value was 3.

**Q.** What about the “patients with improvement of ≥1 NYHA functional class and/or ≥10 point increase in KCCQ-CSS (symptomatic response)” value (aficamten group, week 2) of the same compound?
**A.** Its value is 36%.

**Q.** And the “patients with complete hemodynamic response (rest gradient <30 mmHg and Valsalva gradient <50 mmHg)” value (aficamten group, week 8)?
**A.** The value was 70%.

**Q.** And the “patients with improvement of ≥1 NYHA functional class and/or ≥10 point increase in KCCQ-CSS (symptomatic response)” value (aficamten group, week 8)?
**A.** The value was 58%.

**Q.** And the “patients achieving ≥1 of the 4 prespecified clinical response measures” value (aficamten group, week 24)?
**A.** The value was 97%.

**Q.** And the “patients improved in 2 clinical response measures” value (aficamten group, week 24)?
**A.** Its value is 26%.

**Q.** What about the “patients improved in 3 clinical response measures” value (aficamten group, week 24) of the same compound?
**A.** The value was 39%.

**Q.** What about the “patients improved in all 4 clinical response measures” value (aficamten group, week 24) of the same compound?
**A.** The value was 23%.

**Q.** What about the “patients who achieved one clinical response measure” value (aficamten group, week 24) of the same compound?
**A.** Its value is 9%.

**Q.** What about the “patients with improvement in exercise capacity, pVO2 of ≥1.5 mL/kg/min” value (aficamten group, week 24) of the same compound?
**A.** Its value is 47%.

**Q.** And the “patients with improvement of ≥1 NYHA functional class and/or ≥10 point increase in KCCQ-CSS (symptomatic response)” value (aficamten group, week 24)?
**A.** The value was 71%.

**Q.** What about the “patients meeting responder endpoint (pVO2 ≥1.5 mL/kg/min and ≥1 NYHA improvement, or pVO2 ≥3.0 mL/kg/min and no worsening in NYHA)” value (aficamten, Week 24) of the same compound?
**A.** Its value is 42% and 42.3%.

**Q.** What about the “patients who achieved pVO2 of ≥1.5 mL/kg/min and ≥1 improvement in NYHA class” value (aficamten, Week 24) of the same compound?
**A.** The value was 31%.

**Q.** And the “patients with pVO2 ≥3.0 mL/kg/min and no worsening in NYHA” value (aficamten, Week 24)?
**A.** The value was 26%.

**Q.** And the “patients who resolved their symptoms completely (NYHA class I)” value (end of the treatment period)?
**A.** The value was “close to half of patients”.

**Q.** What about the “symptomatic responders with improvement in both NYHA and KCCQ” value [2] of the same compound?
**A.** Its value is 51%.

**Q.** What about the “symptomatic responders with ≤10 point improvement in KCCQ but ≥1 improvement in NYHA functional class” value [2] of the same compound?
**A.** The value was 31%.

**Q.** And the “symptomatic responders with ≥10 point improvement in KCCQ-CSS and no improvement in NYHA class” value [2]?
**A.** The value was 18%.

**Q.** What about the “Common Rate Difference (vs. Placebo)” value (pVO2/NYHA composite responder) of the same compound?
**A.** Its value is 29.
